PubChem BioAssay (NCI)
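Step 1: Grow cells in 96-well plates. Step 2: Expose to compound for 48 hours at 5 concentrations. Step 3: Interpolate endpoints linearly; if unreached, use highest concentration. GI50: concentration for 50% inhibition of growth. TGI denotes the concentration required for complete inhibition of growth.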

Legend:
Assay in all cases: growth of human tumour cells (NCI), 48 h
OVCAR-3 ovarian = tested on: OVCAR-3 ovarian
ACHN renal = tested on: ACHN renal
M14 melanoma = tested on: M14 melanoma
RPMI-8226 leukemia = tested on: RPMI-8226 leukemia
SK-MEL-2 melanoma = tested on: SK-MEL-2 melanoma
MALME-3M melanoma = tested on: MALME-3M melanoma
NCI-H226 lung = tested on: NCI-H226 lung
SNB-75 CNS = tested on: SNB-75 CNS
NCI-H23 lung = tested on: NCI-H23 lung
A498 renal = tested on: A498 renal
OVCAR-8 ovarian = tested on: OVCAR-8 ovarian
UO-31 renal = tested on: UO-31 renal
COLO 205 colon = tested on: COLO 205 colon
SK-MEL-28 melanoma = tested on: SK-MEL-28 melanoma
HT29 colon = tested on: HT29 colon
MDA-MB-435 = tested on: MDA-MB-435
SR leukemia = tested on: SR leukemia
SN12C renal = tested on: SN12C renal
SK-OV-3 ovarian = tested on: SK-OV-3 ovarian
SW-620 colon = tested on: SW-620 colon
MOLT-4 leukemia = tested on: MOLT-4 leukemia
T-47D breast = tested on: T-47D breast
NCI-H460 lung = tested on: NCI-H460 lung
A549 NSCLC = tested on: A549 NSCLC
HCC-2998 colon = tested on: HCC-2998 colon
HL-60(TB) leukemia = tested on: HL-60(TB) leukemia
OVCAR-4 ovarian = tested on: OVCAR-4 ovarian
RXF 393 renal = tested on: RXF 393 renal
HOP-92 NSCLC = tested on: HOP-92 NSCLC
K-562 leukemia = tested on: K-562 leukemia
SF-268 CNS = tested on: SF-268 CNS
HCT-116 colon = tested on: HCT-116 colon
CCRF-CEM leukemia = tested on: CCRF-CEM leukemia
SF-295 CNS = tested on: SF-295 CNS
IGROV1 ovarian = tested on: IGROV1 ovarian
NCI/ADR-RES ovarian = tested on: NCI/ADR-RES ovarian
OVCAR-5 ovarian = tested on: OVCAR-5 ovarian
NCI-H522 lung = tested on: NCI-H522 lung
HCT-15 colon = tested on: HCT-15 colon
UACC-62 melanoma = tested on: UACC-62 melanoma
HOP-62 NSCLC = tested on: HOP-62 NSCLC
UACC-257 melanoma = tested on: UACC-257 melanoma
786-0 renal = tested on: 786-0 renal
EKVX NSCLC = tested on: EKVX NSCLC
CAKI-1 renal = tested on: CAKI-1 renal
DU-145 prostate = tested on: DU-145 prostate
BT-549 breast = tested on: BT-549 breast
TK-10 renal = tested on: TK-10 renal
SK-MEL-5 melanoma = tested on: SK-MEL-5 melanoma
SNB-19 CNS = tested on: SNB-19 CNS
PC-3 prostate = tested on: PC-3 prostate
SF-539 CNS = tested on: SF-539 CNS
KM12 colon = tested on: KM12 colon
MCF7 breast = tested on: MCF7 breast
MDA-MB-231 breast = tested on: MDA-MB-231 breast
LOX IMVI melanoma = tested on: LOX IMVI melanoma
U251 CNS = tested on: U251 CNS
HS 578T breast = tested on: HS 578T breast

C=C(C)[C@@H]1CC[C@]2(CNCCO)CC[C@]3(C)[C@H](CC[C@@H]4[C@@]5(C)CCC(N)[C@@](C)(CO)[C@@H]5CC[C@]43C)[C@@H]12 (some centres undefined)
GI50 (OVCAR-3 ovarian): 1.75 µM | TGI (OVCAR-3 ovarian): 3.29 µM | GI50 (ACHN renal): 1.99 µM | TGI (ACHN renal): 3.61 µM | GI50 (M14 melanoma): 1.75 µM | TGI (M14 melanoma): 3.31 µM | GI50 (RPMI-8226 leukemia): 1.65 µM | TGI (RPMI-8226 leukemia): 3.91 µM | GI50 (SK-MEL-2 melanoma): 1.77 µM | TGI (SK-MEL-2 melanoma): 3.27 µM | GI50 (MALME-3M melanoma): 1.8 µM | TGI (MALME-3M melanoma): 3.31 µM | GI50 (NCI-H226 lung): 2.13 µM | TGI (NCI-H226 lung): 5.48 µM | GI50 (SNB-75 CNS): 1.58 µM | TGI (SNB-75 CNS): 3.1 µM | GI50 (NCI-H23 lung): 2.14 µM | TGI (NCI-H23 lung): 3.95 µM | GI50 (A498 renal): 1.36 µM | TGI (A498 renal): 2.85 µM | GI50 (OVCAR-8 ovarian): 1.76 µM | TGI (OVCAR-8 ovarian): 3.39 µM | GI50 (UO-31 renal): 1.65 µM | TGI (UO-31 renal): 3.07 µM | GI50 (COLO 205 colon): 1.59 µM | TGI (COLO 205 colon): 3.08 µM | GI50 (SK-MEL-28 melanoma): 1.84 µM | TGI (SK-MEL-28 melanoma): 3.38 µM | GI50 (HT29 colon): 1.46 µM | TGI (HT29 colon): 3.18 µM | GI50 (MDA-MB-435): 1.75 µM | TGI (MDA-MB-435): 3.25 µM | GI50 (SR leukemia): 1.68 µM | TGI (SR leukemia): 4.08 µM | GI50 (SN12C renal): 1.75 µM | TGI (SN12C renal): 3.41 µM | GI50 (SK-OV-3 ovarian): 1.95 µM | TGI (SK-OV-3 ovarian): 3.41 µM | GI50 (SW-620 colon): 1.93 µM | TGI (SW-620 colon): 3.88 µM | GI50 (MOLT-4 leukemia): 1.56 µM | TGI (MOLT-4 leukemia): 3.85 µM | GI50 (T-47D breast): 2.07 µM | TGI (T-47D breast): 3.97 µM | GI50 (NCI-H460 lung): 1.77 µM | TGI (NCI-H460 lung): 3.36 µM | GI50 (A549 NSCLC): 1.8 µM | TGI (A549 NSCLC): 3.38 µM | GI50 (HCC-2998 colon): 1.83 µM | TGI (HCC-2998 colon): 3.35 µM | GI50 (HL-60(TB) leukemia): 1.33 µM | TGI (HL-60(TB) leukemia): 3.46 µM | GI50 (OVCAR-4 ovarian): 1.9 µM | TGI (OVCAR-4 ovarian): 3.99 µM | GI50 (RXF 393 renal): 1.29 µM | TGI (RXF 393 renal): 2.62 µM | GI50 (HOP-92 NSCLC): 1.43 µM | TGI (HOP-92 NSCLC): 2.94 µM | GI50 (K-562 leukemia): 1.5 µM | TGI (K-562 leukemia): 3.7 µM | GI50 (SF-268 CNS): 1.75 µM | TGI (SF-268 CNS): 3.46 µM | GI50 (HCT-116 colon): 1.55 µM | TGI (HCT-116 colon): 2.96 µM | GI50 (CCRF-CEM leukemia): 2.17 µM | TGI (CCRF-CEM leukemia): 5.3 µM | GI50 (SF-295 CNS): 1.76 µM | TGI (SF-295 CNS): 3.33 µM | GI50 (IGROV1 ovarian): 1.98 µM | TGI (IGROV1 ovarian): 4.09 µM | GI50 (NCI/ADR-RES ovarian): 12.9 µM | TGI (NCI/ADR-RES ovarian): 26.7 µM | GI50 (OVCAR-5 ovarian): 2.3 µM | TGI (OVCAR-5 ovarian): 4.79 µM | GI50 (NCI-H522 lung): 1.95 µM | TGI (NCI-H522 lung): 3.69 µM | GI50 (HCT-15 colon): 1.8 µM | TGI (HCT-15 colon): 3.57 µM | GI50 (UACC-62 melanoma): 1.77 µM | TGI (UACC-62 melanoma): 3.19 µM | GI50 (HOP-62 NSCLC): 1.79 µM | TGI (HOP-62 NSCLC): 3.28 µM | GI50 (UACC-257 melanoma): 1.85 µM | TGI (UACC-257 melanoma): 3.39 µM | GI50 (786-0 renal): 1.68 µM | TGI (786-0 renal): 3.11 µM | GI50 (EKVX NSCLC): 1.75 µM | TGI (EKVX NSCLC): 3.38 µM | GI50 (CAKI-1 renal): 2.85 µM | TGI (CAKI-1 renal): 7.82 µM | GI50 (DU-145 prostate): 1.65 µM | TGI (DU-145 prostate): 3.18 µM | GI50 (BT-549 breast): 1.74 µM | TGI (BT-549 breast): 3.33 µM | GI50 (TK-10 renal): 1.74 µM | TGI (TK-10 renal): 3.2 µM | GI50 (SK-MEL-5 melanoma): 1.74 µM | TGI (SK-MEL-5 melanoma): 3.14 µM | GI50 (SNB-19 CNS): 1.83 µM | TGI (SNB-19 CNS): 3.36 µM | GI50 (PC-3 prostate): 1.73 µM | TGI (PC-3 prostate): 3.62 µM | GI50 (SF-539 CNS): 1.77 µM | TGI (SF-539 CNS): 3.27 µM | GI50 (KM12 colon): 1.71 µM | TGI (KM12 colon): 3.21 µM | GI50 (MCF7 breast): 1.6 µM | TGI (MCF7 breast): 3.17 µM | GI50 (MDA-MB-231 breast): 1.86 µM | TGI (MDA-MB-231 breast): 3.44 µM | GI50 (LOX IMVI melanoma): 1.64 µM | TGI (LOX IMVI melanoma): 3.1 µM | GI50 (U251 CNS): 1.69 µM | TGI (U251 CNS): 3.16 µM

Cc1ncc([N+](=O)[O-])n1CC(O)Cn1ccnc1[N+](=O)[O-] (centres undefined)
TGI (OVCAR-3 ovarian): > 100 µM | TGI (ACHN renal): > 100 µM | TGI (RPMI-8226 leukemia): > 100 µM | TGI (SK-MEL-2 melanoma): > 100 µM | TGI (MALME-3M melanoma): > 100 µM | TGI (NCI-H226 lung): > 100 µM | TGI (SNB-75 CNS): > 100 µM | TGI (NCI-H23 lung): > 100 µM | TGI (A498 renal): > 100 µM | TGI (OVCAR-8 ovarian): > 100 µM | TGI (HS 578T breast): > 100 µM | TGI (SK-MEL-28 melanoma): > 100 µM | TGI (HT29 colon): > 100 µM | TGI (SR leukemia): > 100 µM | TGI (SN12C renal): > 100 µM | TGI (SW-620 colon): > 100 µM | TGI (MOLT-4 leukemia): > 100 µM | TGI (NCI-H460 lung): > 100 µM | TGI (A549 NSCLC): > 100 µM | TGI (HCC-2998 colon): > 100 µM | TGI (HL-60(TB) leukemia): > 100 µM | TGI (K-562 leukemia): > 100 µM | TGI (SF-268 CNS): > 100 µM | TGI (HCT-116 colon): > 100 µM | TGI (CCRF-CEM leukemia): > 100 µM | TGI (SF-295 CNS): > 100 µM | TGI (OVCAR-5 ovarian): > 100 µM | TGI (NCI-H522 lung): > 100 µM | TGI (HCT-15 colon): > 100 µM | TGI (HOP-62 NSCLC): > 100 µM | TGI (UACC-257 melanoma): > 100 µM | TGI (786-0 renal): > 100 µM | TGI (EKVX NSCLC): > 100 µM | TGI (TK-10 renal): > 100 µM | TGI (SK-MEL-5 melanoma): > 100 µM | TGI (PC-3 prostate): > 100 µM | TGI (SF-539 CNS): > 100 µM | TGI (KM12 colon): > 100 µM | TGI (MCF7 breast): > 100 µM | TGI (U251 CNS): > 100 µM
